18 compounds from patent publication US12459922B2 (Gilead Sciences, Inc., priority 2022, dated 2025) can be followed below.

Read-outs that look alike come from different tables or passages of the source.

The experiment deals with endogenous cellular STAT1 (phosphorylated at Tyr701) in NCI-H1373 cells. Nature of the experiment: Phospho-STAT1 (Tyr701) LANCE Ultra TR-FRET Detection Assay. The settings on record: phospho-STAT1 (Tyr701) induction, read-out: NH1373 pSTAT1 EC50. The experiment is classed as cell-based.

As usually defined, the EC50 is the concentration at which the effect is half-maximal. For `O=c1[nH]ncc(N[C@H]2CCC[C@@H](Cn3cnc4cc(-c5nc6ccccn6n5)c(F)cc4c3=O)C2)c1C(F)(F)F` [Example 487], the EC50 (Homo sapiens, NCI-H1373, 48 h) stood at 0.51 nM.

As for `C[C@@H](CCCn1ccc2cc(-c3ncc(C(F)(F)F)c(N)n3)c(F)cc2c1=O)Nc1cn[nH]c(=O)c1C(F)(F)F` [Example 128, (S)-6-(4-amino-5-(trifluoromethyl)pyrimidin-2-yl)-7-fluoro-2-(4-((6-oxo-5-(trifluoromethyl)-1,6-dihydropyridazin-4-yl)amino)pentyl)isoquinolin-1(2H)-one], the 50% effective concentration (EC50) (48 hours) worked out at 16.7 nM.

In the case of `Nc1nc(-c2cc3ccn(CCC[C@H](CO)Nc4cn[nH]c(=O)c4C(F)(F)F)c(=O)c3cc2F)ccc1C(F)(F)F` [Example 167, 6-[6-amino-5-(trifluoromethyl)pyridin-2-yl]-7-fluoro-2-[(4R)-5-hydroxy-4-[[6-oxo-5-(trifluoromethyl)-1H-pyridazin-4-yl]amino]pentyl]isoquinolin-1-one], the EC50 (Homo sapiens, NCI-H1373, 48 h) came out at 103 nM.

Consider `CC[C@@H](CCCn1ccc2cc(-c3ncc(C(F)F)cn3)c(F)cc2c1=O)Nc1cn[nH]c(=O)c1C(F)(F)F` [Example 345, (S)-6-(5-(difluoromethyl)pyrimidin-2-yl)-7-fluoro-2-(4-((6-oxo-5-(trifluoromethyl)-1,6-dihydropyridazin-4-yl)amino)hexyl)isoquinolin-1(2H)-one], for which, for the setting “Homo sapiens, NCI-H1373, 48 h”, the concentration giving a half-maximal response (EC50) came to 6.71 nM.

For `Cc1nc(N)nc(-c2cc3ccn(CCC[C@H](C)Nc4cn[nH]c(=O)c4C(F)(F)F)c(=O)c3cc2F)n1` [Example 366, (S)-6-(4-amino-6-methyl-1,3,5-triazin-2-yl)-7-fluoro-2-(4-((6-oxo-5-(trifluoromethyl)-1,6-dihydropyridazin-4-yl)amino)pentyl)isoquinolin-1(2H)-one], the concentration for a half-maximal effect (EC50) (Homo sapiens, NCI-H1373, 48 h) was 92.5 nM.

For the compound `Nc1nc(-c2cc3ccn(CCC[C@@H](Nc4cn[nH]c(=O)c4C(F)(F)F)C4CC4)c(=O)c3cc2F)ncc1C(F)(F)F` [Example 144, 6-[4-amino-5-(trifluoromethyl)pyrimidin-2-yl]-2-[(4R)-4-cyclopropyl-4-[[6-oxo-5-(trifluoromethyl)-1H-pyridazin-4-yl]amino]butyl]-7-fluoro-isoquinolin-1-one], under “Homo sapiens, NCI-H1373, 48 h”, the EC50 came out at 3.55 nM.

Consider `COc1ccc(-c2cc3ccn(CCC[C@H](C)Nc4cn[nH]c(=O)c4C(F)(F)F)c(=O)c3cc2F)nc1N` [Example 195, (S)-6-(6-amino-5-methoxypyridin-2-yl)-7-fluoro-2-(4-((6-oxo-5-(trifluoromethyl)-1,6-dihydropyridazin-4-yl)amino)pentyl)isoquinolin-1(2H)-one], for which, under “Homo sapiens, NCI-H1373, 48 h”, the EC50 was 8.14 nM.

Regarding `C[C@@H](CCCn1ccc2cc(-c3ncc4c(n3)CCC4)c(F)cc2c1=O)Nc1cn[nH]c(=O)c1C(F)(F)F` [Example 94, (S)-6-(6,7-dihydro-5H-cyclopenta[d]pyrimidin-2-yl)-7-fluoro-2-(4-((6-oxo-5-(trifluoromethyl)-1,6-dihydropyridazin-4-yl)amino)pentyl)isoquinolin-1(2H)-one], the concentration for a half-maximal effect (EC50) (Homo sapiens, NCI-H1373, 48 h) was found to be 22.8 nM.

Take `Nc1nc(-c2cc3ccn(C[C@@H]4COC[C@H](Nc5cn[nH]c(=O)c5C(F)(F)F)C4)c(=O)c3cc2F)ncc1C(F)(F)F` [Example 230, 6-(4-amino-5-(trifluoromethyl)pyrimidin-2-yl)-7-fluoro-2-(((3R,5R)-5-((6-oxo-5-(trifluoromethyl)-1,6-dihydropyridazin-4-yl)amino)tetrahydro-2H-pyran-3-yl)methyl)isoquinolin-1(2H)-one]: the 50% effective concentration (EC50) (Homo sapiens, NCI-H1373, 48 h) is 115 nM.

On to `COc1cnc(-c2cc3ccn(CCC[C@H](C)Nc4cn[nH]c(=O)c4C(F)(F)F)c(=O)c3cc2F)nc1NC1COC1` [Example 217, (S)-7-fluoro-6-(5-methoxy-4-(oxetan-3-ylamino)pyrimidin-2-yl)-2-(4-((6-oxo-5-(trifluoromethyl)-1,6-dihydropyridazin-4-yl)amino)pentyl)isoquinolin-1(2H)-one], for which the EC50 (Homo sapiens, NCI-H1373, 48 h) amounted to 1580 nM.

As for `Cc1cnc(N)nc1-c1cc2ncn(CCC[C@H](C)Nc3cn[nH]c(=O)c3C(F)(F)F)c(=O)c2cc1F` [Example 79, (S)-7-(2-amino-5-methylpyrimidin-4-yl)-6-fluoro-3-(4-((6-oxo-5-(trifluoromethyl)-1,6-dihydropyridazin-4-yl)amino)pentyl)quinazolin-4(3H)-one], the half-maximal effective concentration (EC50) (Homo sapiens, NCI-H1373, 48 h) was 1500 nM.

With `O=c1[nH]ncc(N[C@H]2COC[C@@H](Cn3ccc4cc(-c5ncc(C(F)(F)F)cn5)c(F)cc4c3=O)C2)c1C(F)(F)F` [Example 229, 7-fluoro-2-(((3R,5R)-5-((6-oxo-5-(trifluoromethyl)-1,6-dihydropyridazin-4-yl)amino)tetrahydro-2H-pyran-3-yl)methyl)-6-(5-(trifluoromethyl)pyrimidin-2-yl)isoquinolin-1(2H)-one], the EC50 (Homo sapiens, NCI-H1373, 48 h) amounted to 72.5 nM.

In the case of `C[C@@H](CCCn1cnc2cc(-c3ncc4c(F)c[nH]c4n3)c(F)cc2c1=O)Nc1cn[nH]c(=O)c1C(F)(F)F` [Example 64, 6-fluoro-7-(5-fluoro-7H-pyrrolo[2,3-d]pyrimidin-2-yl)-3-[(4S)-4-[[6-oxo-5-(trifluoromethyl)-1H-pyridazin-4-yl]amino]pentyl]quinazolin-4-one], the half-maximal effective concentration (EC50) (Homo sapiens, NCI-H1373, 48 h) came to 37.3 nM.

Take `C[C@@H](Nc1cn[nH]c(=O)c1C(F)(F)F)/C(F)=C/Cn1ccc2cc(-c3ncc(C(F)(F)F)cn3)c(F)c(F)c2c1=O` [Example 131, (R,Z)-7,8-difluoro-2-(3-fluoro-4-((6-oxo-5-(trifluoromethyl)-1,6-dihydropyridazin-4-yl)amino)pent-2-en-1-yl)-6-(5-(trifluoromethyl)pyrimidin-2-yl)isoquinolin-1(2H)-one]: the EC50 (Homo sapiens, NCI-H1373, 48 h) was found to be 158 nM.

`COc1ncc(-c2cc3ccn(CCC[C@H](COC(F)F)Nc4cn[nH]c(=O)c4C(F)(F)F)c(=O)c3cc2F)nc1N` [Example 415, (R)-6-(6-amino-5-methoxypyrazin-2-yl)-2-(5-(difluoromethoxy)-4-((6-oxo-5-(trifluoromethyl)-1,6-dihydropyridazin-4-yl)amino)pentyl)-7-fluoroisoquinolin-1(2H)-one]: the EC50 (Homo sapiens, NCI-H1373, 48 h) was 2.49 nM.

Take `O=c1[nH]ncc(N[C@H]2CCC[C@@H](Cn3ccc4cc(-c5nccc(C(F)(F)F)n5)c(F)cc4c3=O)C2)c1C(F)(F)F` [Example 272, 7-fluoro-2-(((1R,3S)-3-((6-oxo-5-(trifluoromethyl)-1,6-dihydropyridazin-4-yl)amino)cyclohexyl)methyl)-6-(4-(trifluoromethyl)pyrimidin-2-yl)isoquinolin-1(2H)-one]: where the note is “Homo sapiens, NCI-H1373, 48 h”, the concentration giving a half-maximal response (EC50) was 10000 nM.

With `CC(C)(CCCn1ccc2cc(-c3ncc(C(F)(F)F)c(N)n3)c(F)cc2c1=O)Nc1cn[nH]c(=O)c1C(F)(F)F` [Example 137, 6-(4-amino-5-(trifluoromethyl)pyrimidin-2-yl)-7-fluoro-2-(4-methyl-4-((6-oxo-5-(trifluoromethyl)-1,6-dihydropyridazin-4-yl)amino)pentyl)isoquinolin-1(2H)-one], the EC50 (Homo sapiens, NCI-H1373, 48 h) was determined as 50.6 nM.

As for `C[C@@H](CCCn1ccc2cc(-c3nc(N)ncc3C(F)F)c(F)cc2c1=O)Nc1cn[nH]c(=O)c1C(F)(F)F` [Example 105, 6-[2-amino-5-(difluoromethyl)pyrimidin-4-yl]-7-fluoro-2-[(4S)-4-[[6-oxo-5-(trifluoromethyl)-1H-pyridazin-4-yl]amino]pentyl]isoquinolin-1-one], the concentration for a half-maximal effect (EC50) (Homo sapiens, NCI-H1373, 48 h) turned out to be 465 nM.
